Test results from ChEMBL document CHEMBL4371091, “Hypalocrinins, Taurine-Conjugated Anthraquinone and Biaryl Pigments from the Deep Sea Crinoid Hypalocrinus naresianus” (J Nat Prod, 2019).
Calls of active or inactive are those of the source. No cut-off for these calls is given here.

Key:
HT-29 = test: Cytotoxicity against human HT-29 cells at 25 ug/ml; type: functional, cell-based
MDA-MB-231 = test: Cytotoxicity against human MDA-MB-231 cells at 25 ug/ml; type: functional, cell-based
PSN1 = test: Cytotoxicity against human PSN1 cells at 25 ug/ml; type: functional, cell-based
A549 = test: Cytotoxicity against human A549 cells at 25 ug/ml; type: functional, cell-based
[1] = Solubility of the compound in water; type: physicochemical; settings: buffer

## O=C(NCCS(=O)(=O)O)c1cc(O)c2c(c1)C(=O)c1cc(O)c(Br)c(O)c1C2=O
HT-29
  Activity: inactive
MDA-MB-231
  Activity: inactive
PSN1
  Activity: inactive
A549
  Activity: inactive
[1]
  solubility: Soluble

## O=C(O)c1cc(O)c2c(c1)C(=O)c1cc(O)c(Br)c(O)c1C2=O
[1]
  solubility: Soluble

## CCCc1cc(O)c2c(c1)C(=O)c1cc(OS(=O)(=O)O)cc(O)c1C2=O
[1]
  solubility: Soluble

## O=C(NCCS(=O)(=O)O)c1cc(OS(=O)(=O)O)c2c(c1)C(=O)c1cc(O)c(Br)c(O)c1C2=O
[1]
  solubility: Soluble

## O=C(NCCS(=O)(=O)O)c1cc(O)c2c(c1)C(=O)c1c(c(O)c(Br)c(O)c1-c1c(O)cc3c(c1O)C(=O)c1c(OS(=O)(=O)O)cc(C(=O)NCCS(=O)(=O)O)cc1C3=O)C2=O
[1]
  solubility: Soluble

## CCCc1cc(O)c2c(c1)C(=O)c1cc(O)c(CNCCS(=O)(=O)O)c(O)c1C2=O
[1]
  solubility: Soluble

## O=C(NCCS(=O)(=O)O)c1cc(OS(=O)(=O)O)c2c(c1)C(=O)c1cc(O)c(-c3c(O)c(Br)c(O)c4c3C(=O)c3cc(C(=O)NCCS(=O)(=O)O)cc(OS(=O)(=O)O)c3C4=O)c(O)c1C2=O
[1]
  solubility: Soluble

## O=C(NCCS(=O)(=O)O)c1cc(O)c2c(c1)C(=O)c1cc(O)c(CNCCS(=O)(=O)O)c(O)c1C2=O
[1]
  solubility: Soluble

## O=C(NCCS(=O)(=O)O)c1cc(O)c2c(c1)C(=O)c1cc(O)cc(O)c1C2=O
[1]
  solubility: Soluble
